Conditions: Cohort 1 200 mg QD
Method: All responses were assessed by the investigators.
Reported Adverse Events. […] All-cause mortality data collected during the study were assessed for all enrolled participants. Disease progression related death was not reported as AE.
Number of Participants With Treatment-emergent Adverse Events (TEAEs), and Treatment-emergent Serious Adverse Events (TESAEs). […] TEAEs included both SAEs and non-SAEs. […] Analysis was performed on safety population which included all participants who received at least 1 dose of study medication.

CC(C)NC(=O)COc1cccc(-c2nc(Nc3ccc4[nH]ncc4c3)c3ccccc3n2)c1 [Belumosudil, 2-{3-[4-(1H-indazol-5-ylamino)-2-quinazolinyl]phenoxy}-N-(propan-2-yl) acetamide]
Hypogonadism: # Events: 1 | Hypogonadism: Affected/At Risk: 1/17 | Hypogonadism: Affected/At Risk (%): (5.88%) | Hypokalaemia: # Events: 1 | Hypokalaemia: Affected/At Risk: 1/17 | Hypokalaemia: Affected/At Risk (%): (5.88%) | Hypomagnesaemia: # Events: 1 | Hypomagnesaemia: Affected/At Risk: 1/17 | Hypomagnesaemia: Affected/At Risk (%): (5.88%) | Hyponatraemia: # Events: 1 | Hyponatraemia: Affected/At Risk: 1/17 | Hyponatraemia: Affected/At Risk (%): (5.88%) | Hypophosphataemia: # Events: 1 | Hypophosphataemia: Affected/At Risk: 1/17 | Hypophosphataemia: Affected/At Risk (%): (5.88%) | Hypothermia: # Events: 0 | Hypothermia: Affected/At Risk: 0/17 | Hypothermia: Affected/At Risk (%): (0%) | Hypothyroidism: # Events: 2 | Hypothyroidism: Affected/At Risk: 1/17 | Hypothyroidism: Affected/At Risk (%): (5.88%) | Hypoxia: # Events: 1 | Hypoxia: Affected/At Risk: 1/17 | Hypoxia: Affected/At Risk (%): (5.88%) | Impaired healing: # Events: 1 | Impaired healing: Affected/At Risk: 1/17 | Impaired healing: Affected/At Risk (%): (5.88%) | Influenza like illness: # Events: 1 | Influenza like illness: Affected/At Risk: 1/17 | Influenza like illness: Affected/At Risk (%): (5.88%) | Influenza: # Events: 2 | Influenza: Affected/At Risk: 2/17 | Influenza: Affected/At Risk (%): (11.76%) | Insomnia: # Events: 0 | Insomnia: Affected/At Risk: 0/17 | Insomnia: Affected/At Risk (%): (0%) | Irritability: # Events: 1 | Irritability: Affected/At Risk: 1/17 | Irritability: Affected/At Risk (%): (5.88%) | Joint range of motion decreased: # Events: 0 | Joint range of motion decreased: Affected/At Risk: 0/17 | Joint range of motion decreased: Affected/At Risk (%): (0%) | Lacrimation increased: # Events: 0 | Lacrimation increased: Affected/At Risk: 0/17 | Lacrimation increased: Affected/At Risk (%): (0%) | Leukaemia recurrent: # Events: 1 | Leukaemia recurrent: Affected/At Risk: 1/17 | Leukaemia recurrent: Affected/At Risk (%): (5.88%) | Leukocytosis: # Events: 1 | Leukocytosis: Affected/At Risk: 1/17 | Leukocytosis: Affected/At Risk (%): (5.88%) | Ligament sprain: # Events: 1 | Ligament sprain: Affected/At Risk: 1/17 | Ligament sprain: Affected/At Risk (%): (5.88%) | Limb injury: # Events: 1 | Limb injury: Affected/At Risk: 1/17 | Limb injury: Affected/At Risk (%): (5.88%) | Macular degeneration: # Events: 0 | Macular degeneration: Affected/At Risk: 0/17 | Macular degeneration: Affected/At Risk (%): (0%) | Migraine: # Events: 0 | Migraine: Affected/At Risk: 0/17 | Migraine: Affected/At Risk (%): (0%) | Muscle spasms: # Events: 1 | Muscle spasms: Affected/At Risk: 1/17 | Muscle spasms: Affected/At Risk (%): (5.88%) | Muscle spasticity: # Events: 1 | Muscle spasticity: Affected/At Risk: 1/17 | Muscle spasticity: Affected/At Risk (%): (5.88%) | Muscular weakness: # Events: 6 | Muscular weakness: Affected/At Risk: 4/17 | Muscular weakness: Affected/At Risk (%): (23.53%) | Musculoskeletal chest pain: # Events: 1 | Musculoskeletal chest pain: Affected/At Risk: 1/17 | Musculoskeletal chest pain: Affected/At Risk (%): (5.88%) | Myalgia: # Events: 2 | Myalgia: Affected/At Risk: 1/17 | Myalgia: Affected/At Risk (%): (5.88%) | Nail disorder: # Events: 1 | Nail disorder: Affected/At Risk: 1/17 | Nail disorder: Affected/At Risk (%): (5.88%) | Nasal congestion: # Events: 3 | Nasal congestion: Affected/At Risk: 3/17 | Nasal congestion: Affected/At Risk (%): (17.65%) | Nausea: # Events: 10 | Nausea: Affected/At Risk: 6/17 | Nausea: Affected/At Risk (%): (35.29%) | Neck pain: # Events: 1 | Neck pain: Affected/At Risk: 1/17 | Neck pain: Affected/At Risk (%): (5.88%) | Nephrotic syndrome: # Events: 1 | Nephrotic syndrome: Affected/At Risk: 1/17 | Nephrotic syndrome: Affected/At Risk (%): (5.88%) | Neuropathy peripheral: # Events: 0 | Neuropathy peripheral: Affected/At Risk: 0/17 | Neuropathy peripheral: Affected/At Risk (%): (0%) | Neutrophil count decreased: # Events: 1 | Neutrophil count decreased: Affected/At Risk: 1/17 | Neutrophil count decreased: Affected/At Risk (%): (5.88%) | Nocturia: # Events: 1 | Nocturia: Affected/At Risk: 1/17 | Nocturia: Affected/At Risk (%): (5.88%) | Non-cardiac chest pain: # Events: 0 | Non-cardiac chest pain: Affected/At Risk: 0/17 | Non-cardiac chest pain: Affected/At Risk (%): (0%) | Obesity: # Events: 2 | Obesity: Affected/At Risk: 2/17 | Obesity: Affected/At Risk (%): (11.76%) | Oedema peripheral: # Events: 3 | Oedema peripheral: Affected/At Risk: 3/17 | Oedema peripheral: Affected/At Risk (%): (17.65%) | Oedema: # Events: 0 | Oedema: Affected/At Risk: 0/17 | Oedema: Affected/At Risk (%): (0%) | Oesophageal ulcer: # Events: 0 | Oesophageal ulcer: Affected/At Risk: 0/17 | Oesophageal ulcer: Affected/At Risk (%): (0%) | Oral candidiasis: # Events: 3 | Oral candidiasis: Affected/At Risk: 2/17 | Oral candidiasis: Affected/At Risk (%): (11.76%) | Oropharyngeal pain: # Events: 1 | Oropharyngeal pain: Affected/At Risk: 1/17 | Oropharyngeal pain: Affected/At Risk (%): (5.88%) | Orthopnoea: # Events: 1 | Orthopnoea: Affected/At Risk: 1/17 | Orthopnoea: Affected/At Risk (%): (5.88%) | Osteonecrosis: # Events: 1 | Osteonecrosis: Affected/At Risk: 1/17 | Osteonecrosis: Affected/At Risk (%): (5.88%) | Osteopenia: # Events: 0 | Osteopenia: Affected/At Risk: 0/17 | Osteopenia: Affected/At Risk (%): (0%) | Osteoporosis: # Events: 0 | Osteoporosis: Affected/At Risk: 0/17 | Osteoporosis: Affected/At Risk (%): (0%) | Overdose: # Events: 1 | Overdose: Affected/At Risk: 1/17 | Overdose: Affected/At Risk (%): (5.88%) | Pain in extremity: # Events: 2 | Pain in extremity: Affected/At Risk: 2/17 | Pain in extremity: Affected/At Risk (%): (11.76%) | Pain: # Events: 3 | Pain: Affected/At Risk: 3/17 | Pain: Affected/At Risk (%): (17.65%) | Palpitations: # Events: 1 | Palpitations: Affected/At Risk: 1/17 | Palpitations: Affected/At Risk (%): (5.88%) | Paraesthesia: # Events: 0 | Paraesthesia: Affected/At Risk: 0/17 | Paraesthesia: Affected/At Risk (%): (0%) | Participants with TEAE: 17 (100%) participants | Participants with TESAE: 5 (29%) participants | Pericardial effusion: # Events: 1 | Pericardial effusion: Affected/At Risk: 1/17 | Pericardial effusion: Affected/At Risk (%): (5.88%) | Peripheral coldness: # Events: 1 | Peripheral coldness: Affected/At Risk: 1/17 | Peripheral coldness: Affected/At Risk (%): (5.88%) | Peripheral sensory neuropathy: # Events: 0 | Peripheral sensory neuropathy: Affected/At Risk: 0/17 | Peripheral sensory neuropathy: Affected/At Risk (%): (0%) | Phlebitis: # Events: 0 | Phlebitis: Affected/At Risk: 0/17 | Phlebitis: Affected/At Risk (%): (0%) | Photophobia: # Events: 0 | Photophobia: Affected/At Risk: 0/17 | Photophobia: Affected/At Risk (%): (0%) | Platelet count decreased: # Events: 3 | Platelet count decreased: Affected/At Risk: 1/17 | Platelet count decreased: Affected/At Risk (%): (5.88%) | Pleural effusion: # Events: 1 | Pleural effusion: Affected/At Risk: 1/17 | Pleural effusion: Affected/At Risk (%): (5.88%) | Pneumonia respiratory syncytial viral: # Events: 0 | Pneumonia respiratory syncytial viral: Affected/At Risk: 0/17 | Pneumonia respiratory syncytial viral: Affected/At Risk (%): (0%) | Pneumonia: # Events: 2 | Pneumonia: Affected/At Risk: 1/17 | Pneumonia: Affected/At Risk (%): (5.88%) | Pollakiuria: # Events: 1 | Pollakiuria: Affected/At Risk: 1/17 | Pollakiuria: Affected/At Risk (%): (5.88%) | Presyncope: # Events: 0 | Presyncope: Affected/At Risk: 0/17 | Presyncope: Affected/At Risk (%): (0%) | Productive cough: # Events: 2 | Productive cough: Affected/At Risk: 2/17 | Productive cough: Affected/At Risk (%): (11.76%) | Proteinuria: # Events: 2 | Proteinuria: Affected/At Risk: 2/17 | Proteinuria: Affected/At Risk (%): (11.76%) | Pruritus: # Events: 1 | Pruritus: Affected/At Risk: 1/17 | Pruritus: Affected/At Risk (%): (5.88%) | Pseudomonas infection: # Events: 1 | Pseudomonas infection: Affected/At Risk: 1/17 | Pseudomonas infection: Affected/At Risk (%): (5.88%) | Pulmonary mass: # Events: 0 | Pulmonary mass: Affected/At Risk: 0/17 | Pulmonary mass: Affected/At Risk (%): (0%) | Pyrexia: # Events: 3 | Pyrexia: Affected/At Risk: 1/17 | Pyrexia: Affected/At Risk (%): (5.88%) | Rash erythematous: # Events: 0 | Rash erythematous: Affected/At Risk: 0/17 | Rash erythematous: Affected/At Risk (%): (0%) | Rash maculo-papular: # Events: 2 | Rash maculo-papular: Affected/At Risk: 2/17 | Rash maculo-papular: Affected/At Risk (%): (11.76%) | Rash pustular: # Events: 0 | Rash pustular: Affected/At Risk: 0/17 | Rash pustular: Affected/At Risk (%): (0%) | Rash: # Events: 2 | Rash: Affected/At Risk: 1/17 | Rash: Affected/At Risk (%): (5.88%) | Red blood cells urine positive: # Events: 0 | Red blood cells urine positive: Affected/At Risk: 0/17 | Red blood cells urine positive: Affected/At Risk (%): (0%) | Renal failure: # Events: 0 | Renal failure: Affected/At Risk: 0/17 | Renal failure: Affected/At Risk (%): (0%) | Respiratory syncytial virus infection: # Events: 0 | Respiratory syncytial virus infection: Affected/At Risk: 0/17 | Respiratory syncytial virus infection: Affected/At Risk (%): (0%) | Respiratory tract infection fungal: # Events: 1 | Respiratory tract infection fungal: Affected/At Risk: 1/17 | Respiratory tract infection fungal: Affected/At Risk (%): (5.88%) | Respiratory tract infection: # Events: 1 | Respiratory tract infection: Affected/At Risk: 1/17 | Respiratory tract infection: Affected/At Risk (%): (5.88%) | Restless legs syndrome: # Events: 0 | Restless legs syndrome: Affected/At Risk: 0/17 | Restless legs syndrome: Affected/At Risk (%): (0%) | Rosacea: # Events: 0 | Rosacea: Affected/At Risk: 0/17 | Rosacea: Affected/At Risk (%): (0%) | SAE Abdominal wall haematoma, # events: 0 | SAE Abdominal wall haematoma, affected/at risk: 0/17 | SAE Acute kidney injury, # events: 0 | SAE Acute kidney injury, affected/at risk: 0/17 | SAE Acute lymphocytic leukaemia recurrent, # events: 0 | SAE Acute lymphocytic leukaemia recurrent, affected/at risk: 0/17 | SAE Acute respiratory failure, # events: 1 | SAE Acute respiratory failure, affected/at risk: 1/17 | SAE Anaphylactic reaction, # events: 1 | SAE Anaphylactic reaction, affected/at risk: 1/17 | SAE Bacteraemia, # events: 0 | SAE Bacteraemia, affected/at risk: 0/17 | SAE Cardiac arrest, # events: 0 | SAE Cardiac arrest, affected/at risk: 0/17 | SAE Cellulitis, # events: 0 | SAE Cellulitis, affected/at risk: 0/17 | SAE Chronic graft versus host disease in skin, # events: 0 | SAE Chronic graft versus host disease in skin, affected/at risk: 0/17 | SAE Citrobacter infection, # events: 0 | SAE Citrobacter infection, affected/at risk: 0/17 | SAE Dyspnoea, # events: 0 | SAE Dyspnoea, affected/at risk: 0/17 | SAE Embolism, # events: 0 | SAE Embolism, affected/at risk: 0/17 | SAE Febrile neutropenia, # events: 0 | SAE Febrile neutropenia, affected/at risk: 0/17 | SAE Graft versus host disease in lung, # events: 0 | SAE Graft versus host disease in lung, affected/at risk: 0/17 | SAE Hypoxia, # events: 0 | SAE Hypoxia, affected/at risk: 0/17 | SAE Influenza A virus test positive, # events: 1 | SAE Influenza A virus test positive, affected/at risk: 1/17 | SAE Influenza like illness, # events: 0 | SAE Influenza like illness, affected/at risk: 0/17 | SAE Lacunar infarction, # events: 0 | SAE Lacunar infarction, affected/at risk: 0/17 | SAE Leukaemia recurrent, # events: 0 | SAE Leukaemia recurrent, affected/at risk: 0/17

— patent US20250255867A1 (Kadmon Corporation, LLC, priority 2022, published 2025)
